Key:
Assay type in all cases: biochemical
PI3Kβ = target: T1, PI3Kβ (Homo sapiens, UniProt P42338); test: TR-FRET enzymatic activity assay, PI3Kβ; conditions: recombinant heterodimeric PI3Kβ 25-50 pM, 2× Km ATP, 30 minutes at 25°C
T1 construct: made in house
In short: (§1)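 Read-out is TR-FRET. The assay scores enzymatic activity of the individual PI3K isoforms in the presence of compound.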

PI3Kδ = target: T2, PI3Kδ (Homo sapiens, UniProt O00329); test: TR-FRET enzymatic activity assay, PI3Kδ; conditions: recombinant heterodimeric PI3Kδ 25-50 pM, 2× Km ATP, 30 minutes at 25°C
T2 construct: made in house
In short: as §1

PI3Kγ = target: T3, PI3Kγ (Homo sapiens, UniProt P48736); test: TR-FRET enzymatic activity assay, PI3Kγ; conditions: recombinant heterodimeric PI3Kγ 2 nM, 2× Km ATP, 30 minutes at 25°C
T3 construct: made in house
In short: as §1

T1 sequence (P42338 whole entry): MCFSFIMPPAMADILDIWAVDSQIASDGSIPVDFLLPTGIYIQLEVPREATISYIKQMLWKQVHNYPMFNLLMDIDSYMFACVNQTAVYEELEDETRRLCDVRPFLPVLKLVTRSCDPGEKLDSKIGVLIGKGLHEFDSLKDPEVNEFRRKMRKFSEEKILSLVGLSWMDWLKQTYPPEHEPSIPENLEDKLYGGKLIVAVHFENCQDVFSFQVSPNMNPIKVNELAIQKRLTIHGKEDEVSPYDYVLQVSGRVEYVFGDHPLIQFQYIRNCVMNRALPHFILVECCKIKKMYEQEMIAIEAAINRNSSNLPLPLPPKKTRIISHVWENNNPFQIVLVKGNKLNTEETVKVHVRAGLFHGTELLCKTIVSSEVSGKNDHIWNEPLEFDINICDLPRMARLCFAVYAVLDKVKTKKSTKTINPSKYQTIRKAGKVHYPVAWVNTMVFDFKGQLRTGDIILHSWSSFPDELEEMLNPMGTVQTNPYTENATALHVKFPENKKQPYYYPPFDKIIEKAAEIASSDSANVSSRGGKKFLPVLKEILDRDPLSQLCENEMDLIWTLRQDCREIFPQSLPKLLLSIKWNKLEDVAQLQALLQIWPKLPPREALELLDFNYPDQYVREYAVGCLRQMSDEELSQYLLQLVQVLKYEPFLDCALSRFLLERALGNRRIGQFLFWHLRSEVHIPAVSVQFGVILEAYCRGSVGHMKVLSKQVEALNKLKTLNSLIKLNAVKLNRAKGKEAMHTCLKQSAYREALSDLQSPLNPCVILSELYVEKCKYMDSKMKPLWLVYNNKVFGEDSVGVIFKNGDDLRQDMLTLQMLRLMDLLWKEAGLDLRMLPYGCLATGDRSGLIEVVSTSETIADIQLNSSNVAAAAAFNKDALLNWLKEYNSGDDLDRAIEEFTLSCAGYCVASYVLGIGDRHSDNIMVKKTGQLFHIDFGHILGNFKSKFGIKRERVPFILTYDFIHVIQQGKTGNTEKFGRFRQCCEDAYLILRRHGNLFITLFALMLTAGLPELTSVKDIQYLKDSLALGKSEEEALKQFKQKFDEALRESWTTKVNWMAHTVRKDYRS
T1 sequence (P27986 whole entry partner): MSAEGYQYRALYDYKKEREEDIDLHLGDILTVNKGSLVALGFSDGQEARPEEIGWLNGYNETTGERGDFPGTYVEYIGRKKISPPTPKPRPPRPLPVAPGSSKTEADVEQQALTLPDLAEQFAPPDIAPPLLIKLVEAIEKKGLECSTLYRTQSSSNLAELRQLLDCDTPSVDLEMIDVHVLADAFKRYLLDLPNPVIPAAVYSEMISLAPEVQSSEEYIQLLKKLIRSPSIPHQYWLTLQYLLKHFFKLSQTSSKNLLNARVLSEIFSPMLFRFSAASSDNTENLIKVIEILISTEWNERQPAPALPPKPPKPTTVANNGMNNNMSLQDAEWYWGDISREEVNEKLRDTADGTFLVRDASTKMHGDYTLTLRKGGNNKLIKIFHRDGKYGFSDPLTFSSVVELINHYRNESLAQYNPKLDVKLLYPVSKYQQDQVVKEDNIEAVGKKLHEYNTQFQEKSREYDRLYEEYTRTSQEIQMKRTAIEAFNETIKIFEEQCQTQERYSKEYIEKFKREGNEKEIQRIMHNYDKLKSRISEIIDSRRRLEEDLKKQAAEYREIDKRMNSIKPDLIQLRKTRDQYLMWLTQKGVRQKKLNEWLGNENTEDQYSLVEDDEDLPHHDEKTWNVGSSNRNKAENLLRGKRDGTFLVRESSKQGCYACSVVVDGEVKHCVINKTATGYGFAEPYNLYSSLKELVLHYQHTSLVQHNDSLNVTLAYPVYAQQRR
T3 sequence (P48736 whole entry): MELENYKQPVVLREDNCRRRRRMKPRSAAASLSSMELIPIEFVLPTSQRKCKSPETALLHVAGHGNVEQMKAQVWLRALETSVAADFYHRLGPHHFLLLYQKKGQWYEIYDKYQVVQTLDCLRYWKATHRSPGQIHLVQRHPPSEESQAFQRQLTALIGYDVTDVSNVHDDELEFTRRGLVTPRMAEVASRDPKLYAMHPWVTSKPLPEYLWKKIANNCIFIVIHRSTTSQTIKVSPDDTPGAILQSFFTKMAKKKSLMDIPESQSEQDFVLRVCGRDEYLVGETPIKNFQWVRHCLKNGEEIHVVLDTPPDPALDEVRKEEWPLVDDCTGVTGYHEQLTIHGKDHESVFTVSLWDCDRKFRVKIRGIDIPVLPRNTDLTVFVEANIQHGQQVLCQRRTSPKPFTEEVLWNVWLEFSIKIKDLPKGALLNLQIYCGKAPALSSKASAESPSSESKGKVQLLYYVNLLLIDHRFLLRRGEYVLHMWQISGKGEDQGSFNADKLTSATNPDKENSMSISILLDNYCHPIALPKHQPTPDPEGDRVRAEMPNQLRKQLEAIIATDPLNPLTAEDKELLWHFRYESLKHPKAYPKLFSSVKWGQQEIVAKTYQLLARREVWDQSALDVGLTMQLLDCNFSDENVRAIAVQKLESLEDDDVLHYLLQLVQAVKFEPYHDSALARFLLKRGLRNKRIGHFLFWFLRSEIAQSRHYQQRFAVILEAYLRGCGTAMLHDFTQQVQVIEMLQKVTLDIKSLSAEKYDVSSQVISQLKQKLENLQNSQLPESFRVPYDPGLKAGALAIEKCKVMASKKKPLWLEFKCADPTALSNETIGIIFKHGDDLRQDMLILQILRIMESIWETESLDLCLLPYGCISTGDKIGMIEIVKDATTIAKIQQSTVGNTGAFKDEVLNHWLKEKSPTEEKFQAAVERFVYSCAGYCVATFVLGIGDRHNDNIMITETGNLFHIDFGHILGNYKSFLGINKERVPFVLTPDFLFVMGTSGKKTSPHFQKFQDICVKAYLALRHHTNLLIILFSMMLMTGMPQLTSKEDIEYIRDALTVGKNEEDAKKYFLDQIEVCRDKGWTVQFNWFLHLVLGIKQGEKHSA
T3 sequence (Q8WYR1 whole entry partner): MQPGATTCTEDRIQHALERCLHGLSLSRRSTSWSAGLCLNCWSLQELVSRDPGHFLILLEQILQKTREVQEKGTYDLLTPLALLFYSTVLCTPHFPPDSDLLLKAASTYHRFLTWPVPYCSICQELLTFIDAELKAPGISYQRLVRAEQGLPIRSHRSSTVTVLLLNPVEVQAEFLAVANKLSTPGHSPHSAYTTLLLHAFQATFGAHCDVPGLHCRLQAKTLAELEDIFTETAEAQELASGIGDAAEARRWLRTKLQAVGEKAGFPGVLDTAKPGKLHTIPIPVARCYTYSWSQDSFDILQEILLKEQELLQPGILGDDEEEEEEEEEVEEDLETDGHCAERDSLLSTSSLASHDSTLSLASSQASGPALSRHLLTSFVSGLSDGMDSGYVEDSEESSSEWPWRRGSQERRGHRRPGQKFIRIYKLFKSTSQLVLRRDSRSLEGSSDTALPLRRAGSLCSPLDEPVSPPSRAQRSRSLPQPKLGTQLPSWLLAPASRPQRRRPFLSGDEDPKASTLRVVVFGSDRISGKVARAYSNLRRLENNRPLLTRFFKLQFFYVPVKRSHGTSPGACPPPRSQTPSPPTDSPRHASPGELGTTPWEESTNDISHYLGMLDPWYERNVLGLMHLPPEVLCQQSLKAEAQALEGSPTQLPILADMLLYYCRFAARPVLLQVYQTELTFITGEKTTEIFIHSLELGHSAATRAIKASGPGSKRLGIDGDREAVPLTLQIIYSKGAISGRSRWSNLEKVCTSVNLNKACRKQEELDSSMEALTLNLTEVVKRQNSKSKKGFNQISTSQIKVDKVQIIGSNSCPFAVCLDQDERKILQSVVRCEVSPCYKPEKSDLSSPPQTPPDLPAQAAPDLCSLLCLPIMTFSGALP
T2 sequence (O00329 whole entry): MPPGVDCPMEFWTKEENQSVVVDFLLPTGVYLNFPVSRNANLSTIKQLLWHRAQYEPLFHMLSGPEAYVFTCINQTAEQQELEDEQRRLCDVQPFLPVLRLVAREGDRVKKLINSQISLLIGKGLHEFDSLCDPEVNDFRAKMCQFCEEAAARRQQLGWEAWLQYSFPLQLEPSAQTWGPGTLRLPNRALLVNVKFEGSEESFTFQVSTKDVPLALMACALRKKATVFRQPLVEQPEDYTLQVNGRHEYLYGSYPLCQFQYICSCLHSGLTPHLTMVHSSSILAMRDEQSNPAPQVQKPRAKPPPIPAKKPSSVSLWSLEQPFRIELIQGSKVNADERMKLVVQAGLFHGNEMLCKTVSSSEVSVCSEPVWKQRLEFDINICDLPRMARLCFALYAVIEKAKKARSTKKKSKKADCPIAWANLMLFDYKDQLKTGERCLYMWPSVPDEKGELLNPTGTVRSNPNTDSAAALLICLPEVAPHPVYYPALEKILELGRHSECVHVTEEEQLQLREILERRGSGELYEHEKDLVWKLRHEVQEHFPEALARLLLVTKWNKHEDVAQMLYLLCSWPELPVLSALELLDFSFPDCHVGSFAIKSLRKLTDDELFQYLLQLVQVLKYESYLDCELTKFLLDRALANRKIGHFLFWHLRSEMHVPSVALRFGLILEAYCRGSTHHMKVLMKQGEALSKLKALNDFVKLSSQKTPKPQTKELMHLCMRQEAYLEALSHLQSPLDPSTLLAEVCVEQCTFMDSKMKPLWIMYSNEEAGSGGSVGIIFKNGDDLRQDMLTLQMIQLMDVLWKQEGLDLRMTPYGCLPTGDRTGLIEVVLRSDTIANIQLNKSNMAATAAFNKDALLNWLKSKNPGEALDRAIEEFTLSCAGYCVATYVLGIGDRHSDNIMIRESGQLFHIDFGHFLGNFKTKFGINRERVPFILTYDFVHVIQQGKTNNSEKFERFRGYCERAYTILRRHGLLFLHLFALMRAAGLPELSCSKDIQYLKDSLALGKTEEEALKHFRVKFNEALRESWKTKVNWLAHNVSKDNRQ
T2 sequence (P27986 whole entry partner): as the sequence (P27986 whole entry partner) above

Compound	IC50 (PI3Kβ) [nM]	IC50 (PI3Kδ) [nM]	IC50 (PI3Kγ) [nM]
C[C@H](Nc1nc(N)nc(Cl)c1C#N)c1nc2cccc(Cl)c2c(=O)n1N1CCN(CC(F)(F)F)CC1 [Compound 110, (S)-2-amino-4-chloro-6-((1-(5-chloro-4-oxo-3-(4-(2,2,2-trifluoroethyl)piperazin-1-yl)-3,4-dihydroquinazolin-2-yl)ethyl)amino)pyrimidine-5-carbonitrile]	1400	41	2800
CC[C@H](Nc1nc(N)nc(N)c1C#N)c1nc2cccc(Cl)c2c(=O)n1N1CCN(Cc2ccc(C(F)(F)F)cc2)CC1 [Compound 87, (S)-2,4-diamino-6-((1-(5-chloro-4-oxo-3-(4-(4-(trifluoromethyl)benzyl)piperazin-1-yl)-3,4-dihydroquinazolin-2-yl)propyl)amino)pyrimidine-5-carbonitrile]	10000	57	> 10000
C[C@H](Nc1nc(N)nc(N)c1Cl)c1nc2cccc(Cl)c2c(=O)n1C1CCN(CC(F)(F)F)CC1 [Compound 104, (S)-5-chloro-2-(1-((2,6-diamino-5-chloropyrimidin-4-yl)amino)ethyl)-3-(1-(2,2,2-trifluoroethyl)piperidin-4-yl)quinazolin-4(3H)-one]	10000	260	> 10000
C[C@H](Nc1ncnc(N)c1C#N)c1nc2cccc(Cl)c2c(=O)n1N1CCN(C)CC1 [Compound 5, (S)-4-amino-6-((1-(5-chloro-3-(4-methylpiperazin-1-yl)-4-oxo-3,4-dihydroquinazolin-2-yl)ethyl)amino)pyrimidine-5-carbonitrile]	190	19	> 10000
C[C@H](Nc1ncnc2scnc12)c1nc2cccc(Cl)c2c(=O)n1C1CCNCC1 [Compound 18, (S)-5-chloro-3-(piperidin-4-yl)-2-(1-(thiazolo[5,4-d]pyrimidin-7-ylamino)ethyl)quinazolin-4(3H)-one]	63	9	> 10000
C[C@H](Nc1nc(N)nc(N)c1C#N)c1nc2cccc(Cl)c2c(=O)n1N1CCN(CCOC(C)(C)C)CC1 [Compound 96, (S)-2,4-diamino-6-((1-(3-(4-(2-(tert-butoxy)ethyl)piperazin-1-yl)-5-chloro-4-oxo-3,4-dihydroquinazolin-2-yl)ethyl)amino)pyrimidine-5-carbonitrile]	10	15	1000
CN1CCN(n2c([C@@H](Nc3nc(N)nc(N)c3Cl)C3CC3)nc3cccc(Cl)c3c2=O)CC1 [Compound 2, (S)-5-chloro-2-(cyclopropyl((2,6-diamino-5-chloropyrimidin-4-yl)amino)methyl)-3-(4-methylpiperazin-1-yl)quinazolin-4(3H)-one]	950	260	> 10000
C[C@H](Nc1nc(N)nc(N)c1C#N)c1nc2cccc(Cl)c2c(=O)n1N1CCNC(C(F)(F)F)C1 (stereo partly drawn) [Compound 61, 2,4-diamino-6-(((1S)-1-(5-chloro-4-oxo-3-(3-(trifluoromethyl)piperazin-1-yl)-3,4-dihydroquinazolin-2-yl)ethyl)amino)pyrimidine-5-carbonitrile]	150	0.9	400
C[C@H](Nc1ncnc(N)c1C#N)c1nc2cccc(Cl)c2c(=O)n1C1CCNCC1 [Compound 86, (S)-4-amino-6-((1-(5-chloro-4-oxo-3-(piperidin-4-yl)-3,4-dihydroquinazolin-2-yl)ethyl)amino)pyrimidine-5-carbonitrile]	83	3	> 10000
C[C@H](Nc1ncnc(N)c1Cl)c1nc2cccc(Cl)c2c(=O)n1N1CCNCC1 [Compound 37, (S)-2-(1-((6-amino-5-chloropyrimidin-4-yl)amino)ethyl)-5-chloro-3-(piperazin-1-yl)quinazolin-4(3H)-one]	39	3	> 10000
C[C@H](Nc1ncnc2[nH]cc(Br)c12)c1nc2cccc(Cl)c2c(=O)n1N1CCNCC1 [Compound 69, (S)-2-(1-((5-bromo-7H-pyrrolo[2,3-d]pyrimidin-4-yl)amino)ethyl)-5-chloro-3-(piperazin-1-yl)quinazolin-4(3H)-one]	3	1	7400
C[C@H](Nc1nc(N)nc(N)c1C#N)c1nc2cccc(Cl)c2c(=O)n1[C@@H]1CCCNCC1 [Compound 9, 2,4-diamino-6-(((S)-1-(3-((R)-azepan-4-yl)-5-chloro-4-oxo-3,4-dihydroquinazolin-2-yl)ethyl)amino)pyrimidine-5-carbonitrile]	9	2	> 10000

Second part, the molecule after the results:

IC50 (PI3Kβ) [nM]	IC50 (PI3Kδ) [nM]	IC50 (PI3Kγ) [nM]	Compound
6100	170	> 10000	C[C@H](Nc1nc(N)nc(N)c1Cl)c1nc2cccc(Cl)c2c(=O)n1N1CCN(CC(F)(F)F)CC1 [Compound 108, (S)-5-chloro-2-(1-((2,6-diamino-5-chloropyrimidin-4-yl)amino)ethyl)-3-(4-(2,2,2-trifluoroethyl)piperazin-1-yl)quinazolin-4(3H)-one]
2200	35	> 10000	C[C@H](Nc1ncnc(N)c1C#N)c1nc2cccc(Cl)c2c(=O)n1C1CCN(C2CCN(C)CC2)CC1 [Compound 134, (S)-4-amino-6-((1-(5-chloro-3-(1'-methyl-[1,4'-bipiperidin]-4-yl)-4-oxo-3,4-dihydroquinazolin-2-yl)ethyl)amino)pyrimidine-5-carbonitrile]
44	21	4200	C[C@H](Nc1nc(N)nc(N)c1C#N)c1nc2cccc(Cl)c2c(=O)n1C1CCN(Cc2ccccc2)CC1 [Compound 101, (S)-2,4-diamino-6-((1-(3-(1-benzylpiperidin-4-yl)-5-chloro-4-oxo-3,4-dihydroquinazolin-2-yl)ethyl)amino)pyrimidine-5-carbonitrile]
2	1	2600	Cc1nc(N)nc(N[C@H](c2nc3cccc(Cl)c3c(=O)n2N2CCNCC2)C2CC2)c1C#N [Compound 46, (S)-2-amino-4-(((5-chloro-4-oxo-3-(piperazin-1-yl)-3,4-dihydroquinazolin-2-yl)(cyclopropyl)methyl)amino)-6-methylpyrimidine-5-carbonitrile]
18	2	> 10000	O=c1c2c(Cl)cccc2nc([C@@H](Nc2ncnc3scnc23)C2CC2)n1N1CCNCC1 [Compound 78, (S)-5-chloro-2-(cyclopropyl(thiazolo[5,4-d]pyrimidin-7-ylamino)methyl)-3-(piperazin-1-yl)quinazolin-4(3H)-one]
134	2	190	N#Cc1c(N)nc(N)nc1N[C@H](c1nc2cccc(Cl)c2c(=O)n1N1CCOCC1)C1CC1 [Compound 121, (S)-2,4-diamino-6-(((5-chloro-3-morpholino-4-oxo-3,4-dihydroquinazolin-2-yl)(cyclopropyl)methyl)amino)pyrimidine-5-carbonitrile]
1	1	2900	N#Cc1c(N)nc(N)nc1N[C@H](c1nc2cccc(Cl)c2c(=O)n1N1CCNCC1)C1CC1 [Compound 77, (S)-2,4-diamino-6-(((5-chloro-4-oxo-3-(piperazin-1-yl)-3,4-dihydroquinazolin-2-yl)(cyclopropyl)methyl)amino)pyrimidine-5-carbonitrile]

— patent publication EP3154958B1, “PHOSPHATIDYLINOSITOL 3-KINASE INHIBITORS” (Gilead Sciences, Inc., priority 2014, dated 2015)
